From patent US6083741A, “Internalisation of DNA, using conjugates of poly-l-lysine and an integrin receptor ligand” (Imperial College of Science Technology and Medicine, priority 1994, dated 2000)

Key:
COS-7 cells = assay: Luciferase reporter gene transfection of COS-7 cells; type: cell-based; settings: 200 μm chloroquine
Method: (§1) 5 μg of a luciferase reporter gene plasmid (pGL2 promega) was complexed with either the RGD-polylysine construct (possible structure of complex is shown in FIG. 1) or an equal concentration of polylysine in 100 μl of Optimem media (Gibco). The DNA/peptide complexes and also a DNA only control were then applied to 50% confluent cultured (Caco-2) colonic epithelial cells which were then allowed to express for 48 hours. The cells were then harvested and the cellular protein analysed for luciferase activity (Relative Light Units). The activity shown in FIG. 2 is adjusted to represent activity from 1 mg of cellular protein. In FIG. 2 the term "RGD peptide" is used to indicate the polylysine-integrin receptor binding protein described in Example 1.
The polylysine-integrin receptor binding peptide of Example 1 was again used. Essentially the methodology of Example 2 was followed with the substitution of COS-7 cells, and the use of different concentrations of chloroquine. It can be seen that 200 μm chloroquine gave a 4-fold increase of expression, compared with no chloroquine.
The methodology of Example 2 was repeated using COS-7 cells. In this experiment, different ratios of the K16 RGD peptide DNA were used with and without 100 μm chloroquine, with the results shown in FIG. 7. It can be seen that the optimum ratio was 37.5:1 in both the absence and presence of chloroquine.

[1] = tested on: (Caco-2) colonic epithelial cells; assay: Luciferase reporter gene (pGL2) internalisation and expression in Caco-2 cells; type: cell-based; settings: 5 μg pGL2 plasmid
Method: as §1
The procedure described in Example 2 was repeated but using the polylysine-integrin receptor binding peptide described in Example 3 instead of the polylysine-integrin receptor binding peptide described in Example 1. Control experiments were also performed.
The polylysine-integrin receptor binding peptide of Example 1 was used in a repeat of the procedure of Example 2, but using 1 μg of luciferase reporter gene plasmid. The effect of chloroquine was also investigated.

CCN(CC)CCCC(C)Nc1ccnc2cc(Cl)ccc12 (stereo not drawn) [chloroquine]
cytopathic effects (COS-7 cells): cytopathic effects of chloroquine were apparent

(K)16 GGCRGDMFGCA [Example 3]
improvement of expression by addition of chloroquine ([1]; 100 μM chloroquine vs no chloroquine): ~2 fold | optimal peptide-DNA transfection efficiency (luciferase activity, Relative Light Units per mg cellular protein) ([1]; absence of chloroquine, 48 hours expression, indirect comparison of FIG. 2 and FIG. 3): ~6×10^7 RLU/mg
